The values that follow come from patent publication US12692253B2, “Antimicrobial compounds and methods” (Curza Global, LLC, priority 2019, dated 2026).

Like-named read-outs stand apart in the source and are kept apart here.

The test system of assay [1] is E. faecalis (Ef). The assay can be described thus: Broth microdilution minimum inhibitory concentration (MIC), CLSI. It is filed as cell-based. The note with it: Enterococcus faecalis, read-out: Ef + bicarb MIC. The method in brief: (§1)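 CLSI M07-A9 broth microdilution, slightly modified: 8 two-fold compound dilutions in triplicate, CAMHB ± bicarbonate (6.25 or 25 mM final) or 0-50% heat-inactivated human serum; 5×10^4 CFU/well.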
In general terms: Broth dilution looks for growth in wells or tubes with falling amounts of substance.

In assay [2] the test system is S. aureus (Sa). The description is as above. The class given is cell-based. The conditions noted are these: Staphylococcus aureus, read-out: Sa + bicarb MIC. The procedure, abridged:
as §1

Assay [3] concerns E. coli (Ec). The assay is described as above. It is filed as cell-based. The conditions noted are these: Escherichia coli, read-out: E. coli + bicarb MIC. The method in brief:
as §1

Assay [4] concerns P. aeruginosa (Pa). Described as above. It is filed as cell-based. The conditions noted are these: Pseudomonas aeruginosa, read-out: Pa MIC + bicarb. The procedure, abridged:
as §1

Assay [5] deals with A. baumannn (Ab). Described as above. The class given is cell-based. The conditions noted are these: read-out: Ab + bicarb MIC. The method in brief:
as §1

The target of assay [6] is Rabbit Reticulocyte Lysate (eukaryotic protein synthesis). As to the kind of experiment: Rabbit reticulocyte lysate luciferase assay (inhibition of eukaryotic protein synthesis). The conditions noted are these: read-out: Rabbit reticulocyte IC50 (μM/% inhib.). It is filed as biochemical. The procedure, abridged:
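In vitro translation of luciferase control RNA in nuclease-treated rabbit reticulocyte lysate with amino acid mixture, compounds in 2-fold serial dilution, 90 minutes at 30° C. Luminescence read after luciferase reagent; % inhibition relative to water no-inhibitor controls, with no-RNA background wells.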

Assay [7] has as its system E. coli S30 extract (bacterial protein synthesis). As to the kind of experiment: E. coli S30 extract coupled transcription-translation luciferase assay (inhibition of bacterial protein synthesis). The note with it: read-out: S30 IC50 (μM/% inhib.). It is filed as biochemical. The method in brief:
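Coupled transcription-translation in E. coli S30 circular-DNA extract expressing luciferase from pBESTluc, with 8-point 2-fold compound dilutions; 1 hour at 37 °C, stopped at 4 °C. Luminescence read; % inhibition versus no-inhibitor wells, no-DNA wells as background.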

Where [8] appears, read: growth medium with sodium bicarbonate.
Setting [9] is: A. baumannn, growth medium with sodium bicarbonate.
The mark [10] stands for this setting: growth medium supplemented with sodium bicarbonate.
[11] abbreviates: class by IC50 or % inhibition @ 1 μM.

As to `CC(Cc1ccc(-n2ccc(NC(=O)N3CCN(C(=O)C(C)(C)N)CC3)nc2=O)cc1)N1CCC2(CC1)CC2CN` (centres unmarked) [Compound 237], the MIC was more than 32 µg/mL in assay [1] (setting [8]); more than 32 µg/mL in assay [2] (setting [8]); less than 8 µg/mL in assay [3] (setting [8]); more than 32 µg/mL in assay [4] (setting [8]); more than 32 µg/mL in assay [5] (setting [9]). Besides, the IC50 in assay [6] (% inhibition @ 1 μM) and in assay [7] (% inhibition @ 1 μM) was not below 1 µM in each case.

In the case of `CC(C)(N)C(=O)N1CCN(C(=O)Nc2ccn(-c3ccc(CCN4CCC5(CCC5N)CC4)cc3)c(=O)n2)CC1` (centres unmarked) [Compound 95], the MIC in assay [1] (setting [10]) is more than 32 µg/mL; in assay [2] (setting [10]), less than 8 µg/mL; in assay [3] (setting [10]) it was less than 8 µg/mL; in assay [4] (setting [10]), more than 32 µg/mL; in assay [5] (Acinetobacter baumannii), more than 32 µg/mL. For the same compound, the results for the IC50 in assay [6] (setting [11]) and in assay [7] (setting [11]) were not below 1 µM and less than 0.5 µM, respectively.

In the case of `CC(Cc1ccc(-n2ccc(NC(=O)N3CCN(C(=O)C(N)CCCN)CC3)nc2=O)cc1)N1C[C@@H]2[C@@H](CN)[C@@H]2C1` (some centres unmarked) [Compound 239], the MIC in assay [1] (setting [8]) was more than 32 µg/mL; in assay [2] (setting [8]), 8 to 32 µg/mL; in assay [3] (setting [8]), less than 8 µg/mL; in assay [4] (setting [8]) it was more than 32 µg/mL; in assay [5] (setting [9]) it was more than 32 µg/mL. For the same compound, the IC50 was not below 1 µM in assay [6] (% inhibition @ 1 μM) and less than 0.5 µM in assay [7] (% inhibition @ 1 μM).

Consider `CC(Cc1ccc(-n2ccc(NC(=O)N3CCN(C(=O)C(C)(C)NCS(=O)(=O)O)CC3)nc2=O)cc1)N1C[C@@H]2[C@@H](CNCS(=O)(=O)O)[C@@H]2C1` (some centres unmarked) [Compound 241], for which the MIC in assay [1] (setting [8]) is 8 to 32 µg/mL; in assay [2] (setting [8]), less than 8 µg/mL; in assay [3] (setting [8]), less than 8 µg/mL; in assay [4] (setting [8]) it was more than 32 µg/mL; in assay [5] (setting [9]), more than 32 µg/mL. Further, the IC50 in assay [6] (% inhibition @ 1 μM) was not below 1 µM; in assay [7] (% inhibition @ 1 μM), less than 0.5 µM.

As to `CC(Cc1ccc(-n2ccc(NC(=O)N3CCN(C(=O)[C@@](C)(N)CO)CC3)nc2=O)cc1)N1C[C@@H]2[C@@H](CN)[C@@H]2C1` (some centres unmarked) [Compound 125], the MIC was less than 8 µg/mL in assay [1] (setting [10]); less than 8 µg/mL in assay [2] (setting [10]); less than 8 µg/mL in assay [3] (setting [10]); 8 to 32 µg/mL in assay [4] (setting [10]); more than 32 µg/mL in assay [5] (Acinetobacter baumannii). The IC50 in assay [6] (setting [11]) was not below 1 µM; in assay [7] (setting [11]), less than 0.5 µM.

As for `COC[C@@](C)(N)C(=O)N1CCN(C(=O)Nc2ccn(-c3ccc(CN4C[C@@H]5[C@@H](N)[C@@H]5C4)cc3)c(=O)n2)CC1` [Compound 53], the MIC is less than 8 µg/mL in assay [1] (setting [10]); less than 8 µg/mL in assay [2] (setting [10]); less than 8 µg/mL in assay [3] (setting [10]); more than 32 µg/mL in assay [4] (setting [10]); more than 32 µg/mL in assay [5] (Acinetobacter baumannii). Also, the figures for the IC50 in assay [6] (setting [11]) and in assay [7] (setting [11]) were not below 1 µM and 0.5 to 1 µM, respectively.

For `CC(C)(N)C(=O)N1CCN(C(=O)Nc2ccn(-c3ccc(C[C@H](N)NN4C[C@@H]5[C@@H](N)[C@@H]5C4)cc3)c(=O)n2)CC1` [Compound 178], the MIC in assay [1] (setting [8]), in assay [2] (setting [8]), in assay [3] (setting [8]), in assay [4] (setting [8]) and in assay [5] (setting [9]) was more than 32 µg/mL each time. The IC50 in assay [6] (% inhibition @ 1 μM) and in assay [7] (% inhibition @ 1 μM) was not below 1 µM in each case.

For `COc1cc(-n2ccc(NC(=O)N3CCN(C(=O)C(C)(C)N)CC3)nc2=O)ccc1CCN1C[C@@H]2[C@@H](CN)[C@@H]2C1` [Compound 132], the MIC in assay [1] (setting [10]) was 8 to 32 µg/mL; in assay [2] (setting [10]), 8 to 32 µg/mL; in assay [3] (setting [10]) it was less than 8 µg/mL; in assay [4] (setting [10]), 8 to 32 µg/mL; in assay [5] (Acinetobacter baumannii) it was more than 32 µg/mL. The values for the IC50 in assay [6] (setting [11]) and in assay [7] (setting [11]) were not below 1 µM and less than 0.5 µM, respectively.

For the compound `CCC(Cc1ccc(-n2ccc(NC(=O)N3CCN(C(=O)C(C)(C)N)CC3)nc2=O)cc1)N1CC2CCC(N)C2C1` (centres unmarked) [Compound 217], the MIC was less than 8 µg/mL in assay [1] (setting [8]); less than 8 µg/mL in assay [2] (setting [8]); less than 8 µg/mL in assay [3] (setting [8]); more than 32 µg/mL in assay [4] (setting [8]); more than 32 µg/mL in assay [5] (setting [9]). Further, the IC50 was not below 1 µM in assay [6] (% inhibition @ 1 μM) and less than 0.5 µM in assay [7] (% inhibition @ 1 μM).

With `CNCC(=O)N1CCN(C(=O)Nc2ccn(-c3ccc(CC(C)N4C[C@@H]5[C@@H](CN)[C@@H]5C4)cc3)c(=O)n2)CC1` (some centres unmarked) [Compound 236], the MIC in assay [1] (setting [8]) is more than 32 µg/mL; in assay [2] (setting [8]), 8 to 32 µg/mL; in assay [3] (setting [8]), less than 8 µg/mL; in assay [4] (setting [8]), more than 32 µg/mL; in assay [5] (setting [9]) it was more than 32 µg/mL. Besides, the IC50 in assay [6] (% inhibition @ 1 μM) and in assay [7] (% inhibition @ 1 μM) was not below 1 µM each time.

Consider `CC(C)(N)C(=O)N1CCN(C(=O)Nc2ccn(-c3ccc(CNC45CC(N)(C4)C5)cc3)c(=O)n2)CC1` [Compound 171], for which the MIC is more than 32 µg/mL in assay [1] (setting [8]); more than 32 µg/mL in assay [2] (setting [8]); 8 to 32 µg/mL in assay [3] (setting [8]); more than 32 µg/mL in assay [4] (setting [8]); more than 32 µg/mL in assay [5] (setting [9]). For the same compound, the IC50 in assay [6] (% inhibition @ 1 μM) and in assay [7] (% inhibition @ 1 μM) was not below 1 µM in each case.

For `CC(C)(N)C(=O)N1CCN(C(=O)Nc2ccn(-c3ccc(CN4CC5CCC(C4)C5N)cc3)c(=O)n2)CC1` (centres unmarked) [Compound 29], the MIC was 8 to 32 µg/mL in assay [1] (setting [10]); less than 8 µg/mL in assay [2] (setting [10]); less than 8 µg/mL in assay [3] (setting [10]); more than 32 µg/mL in assay [4] (setting [10]); more than 32 µg/mL in assay [5] (Acinetobacter baumannii). Further, the results for the IC50 in assay [6] (setting [11]) and in assay [7] (setting [11]) were not below 1 µM and 0.5 to 1 µM, respectively.

Turning to `CCC(N)(CC)C(=O)N1CCN(C(=O)Nc2ccn(-c3ccc(CN4C[C@@H]5[C@@H](N)[C@@H]5C4)cc3)c(=O)n2)CC1` [Compound 224], the MIC in assay [1] (setting [8]) was less than 8 µg/mL; in assay [2] (setting [8]) it was less than 8 µg/mL; in assay [3] (setting [8]), less than 8 µg/mL; in assay [4] (setting [8]), more than 32 µg/mL; in assay [5] (setting [9]), more than 32 µg/mL. Besides, the IC50 in assay [6] (% inhibition @ 1 μM) is not below 1 µM; in assay [7] (% inhibition @ 1 μM) it was less than 0.5 µM.

As for `CCC(Cc1ccc(-n2ccc(NC(=O)N3CCN(C(=O)C(C)(C)N)CC3)nc2=O)cc1C(F)(F)F)N1C[C@@H]2[C@@H](CN)[C@@H]2C1` (some centres unmarked) [Compound 211], the MIC was less than 8 µg/mL in assay [1] (setting [8]); less than 8 µg/mL in assay [2] (setting [8]); less than 8 µg/mL in assay [3] (setting [8]); more than 32 µg/mL in assay [4] (setting [8]); 8 to 32 µg/mL in assay [5] (setting [9]). Further, the IC50 in assay [6] (% inhibition @ 1 μM) is not below 1 µM; in assay [7] (% inhibition @ 1 μM), 0.5 to 1 µM.

`CC(C)(N)C(=O)N1CCN(C(=O)Nc2ccn(-c3ccc(CCN4C[C@@H]5[C@H](C4)[C@H]5C(N)CN)cc3)c(=O)n2)CC1` (some centres unmarked) [Compound 213]: the MIC in assay [1] (setting [8]) was more than 32 µg/mL; in assay [2] (setting [8]) it was more than 32 µg/mL; in assay [3] (setting [8]) it was less than 8 µg/mL; in assay [4] (setting [8]), more than 32 µg/mL; in assay [5] (setting [9]), more than 32 µg/mL. Besides, the IC50 in assay [6] (% inhibition @ 1 μM) and in assay [7] (% inhibition @ 1 μM) was not below 1 µM each time.

Take `CC(Cc1ccc(-n2ccc(NC(=O)N3CCN(C(=O)C(C)(C)N)CC3)nc2=O)cc1)N(CC(F)(F)F)C1CC2(CC(N)C2)C1` (centres unmarked) [Compound 195]: the MIC in assay [1] (setting [8]) is more than 32 µg/mL; in assay [2] (setting [8]) it was 8 to 32 µg/mL; in assay [3] (setting [8]), more than 32 µg/mL; in assay [4] (setting [8]) it was more than 32 µg/mL; in assay [5] (setting [9]), more than 32 µg/mL. In addition, the IC50 in assay [6] (% inhibition @ 1 μM) and in assay [7] (% inhibition @ 1 μM) was not below 1 µM in each case.

Turning to `CC(C)N(C(C)Cc1ccc(-n2ccc(NC(=O)N3CCN(C(=O)C(C)(C)N)CC3)nc2=O)cc1)C1CC2(CC(N)C2)C1` (centres unmarked) [Compound 196], the MIC in assay [1] (setting [8]), in assay [2] (setting [8]), in assay [3] (setting [8]), in assay [4] (setting [8]) and in assay [5] (setting [9]) was more than 32 µg/mL throughout. Besides, the IC50 in assay [6] (% inhibition @ 1 μM) and in assay [7] (% inhibition @ 1 μM) was not below 1 µM in each case.

For orientation: MIC means the smallest concentration in the dilution series that meets the test's criterion for growth inhibition.
